“Also recorded” adds a separate entry of the source.
Experiments:
[1] = tested on: p53; assay: Phosphorylation status of p53 (Western analysis); format: cell-based, human; details: RCC45 cells, 9AA 5 μM, 16 h
Protocol: Cells were lysed in RIPA buffer (25 mM Tris HCl, pH 7.2, 125 mM NaCl, 1% NP40, 1% sodium deoxycholate, 1 mM EDTA) containing 1 mM PMSF (Sigma), 10 ug/ml of aprotinin (Sigma) and 10 ug/ml of leupeptin (Sigma). Protein concentrations were determined with the BioRad Dc protein assay kit. Equal protein amounts were run on gradient 4-20% precast gels (Novex) and blotted onto PVDF membranes (Amersham). The following antibodies were used: anti-p53—monoclonal mouse DO1 (Santa-Cruz), anti-p21—monoclonal mouse F-5 (Santa-Cruz), anti-mdm2—monoclonal mouse SMP14 (Santa-Cruz), anti-p65—(C20, Santa Cruz), anti-phospho-p65—(ser536, Cell Signaling), anti-IκBa—(C21, Santa Cruz), anti-p50—(NLS, Santa Cruz), anti-IKK1 (Cell Signaling), anti-γH2X (Cell Signaling), anti-actin (Santa Cruz). p53 phosphorylation status was analyzed using the phospho-p53 sampler kit from Cell Signaling according to the manufacturer's recommendations. HRP-conjugated secondary antibodies were purchased from Santa Cruz. Quantitation of the data was performed using Quantity One software from BioRad.

[2] = tested on: NF-κB; assay: NF-κB-dependent reporter in H1299-NF-kBLuc cells; format: cell-based, human; details: TNF 10 ng/ml
Protocol: Transient transfections. 2×10^5 cells were plated into 6-well plates and, after overnight incubation, transfected with Lipofectamin Plus reagent (Gibco BRL) with 0.5 μg of reporter plasmids (p21-ConALuc or pNF-κBLuc) in combination with different concentrations of plasmids expressing p53, Arf, Ss-IκB, or siHDM2. Corresponding empty vectors were added in all transfections up to 2 μg of total DNA. Normalization of transfection efficiency was done by adding 0.2 μg of pCMV-LacZ plasmid. Luciferase activity and β-galactosidase activity were measured in lysates prepared 48 hours after transfection with Cell Lysis Buffer (Promega) by the luciferase assay system (Promega) or β-galactosidase enzyme system (Promega). Luminometric and colorimetric reactions were read on the Wallack 1420 plate reader (Perkin Elmer). Stable transduction of reporters. 2×10^4 cells with integrated reporter were plated in 96-well plates. After overnight incubation, chemicals or media from lentivirus-producing cells were added. At different times, cell lysates were prepared using Reporter Lysis Buffer (Promega). Luciferase or β-galactosidase activity and protein concentration were measured in aliquots of cell lysates using standard kits (Promega, Luciferase and β-galactosidase assay systems, Biorad Protein Assay Kit).

[3] = tested on: NF-κB; assay: Electromobility shift assay and immunofluorescent staining of nuclear NF-κB; format: cell-based, human; details: TNF 10 ng/ml, 10 μM
Source text: All washings were done with blocking solution.

[4] = tested on: ACHN cells; assay: Experimental chemotherapy of tumor xenografts; format: in vivo, nude mice; details: 5-fluorouracil 35 mg/kg
Protocol: NIH Swiss athymic nude, male mice, 5-6 weeks old, were purchased from Harlan. 5×10^6 tumor cells were inoculated into the flanks of mice in 100 μL of PBS. When tumors reached 5 mm in diameter, intraperitoneal injections of drugs were started in 100 μL of a solution of 50% DMSO in PBS (except for quinacrine, which was dissolved in PBS). As vehicle, 50% DMSO solution in PBS was used. Tumor size was measured in three dimensions every other day.

[5] = tested on: hapten-specific CD8 T cells producing IFN-γ; assay: ELISPOT assay of hapten-specific CD8 T cells producing IFN-γ; format: in vivo, BALB/c mice; details: day +5
Protocol: ELISPOT assays to enumerate hapten-specific T cells producing IFN-γ were performed as previously described. Briefly, ELISPOT plates (Millipore, Bedford, Mass.) were coated with 100 ml of […] anti-IFN-γ mAb R26A2 and incubated overnight at […]. The plates were blocked with 1% BSA in PBS for 90 min at 37° C. and washed four times with PBS. LNC suspensions from DNFB-sensitized mice were prepared on day +5 after sensitization and CD8 + T cells were enriched by negative selection using Dynabeads (Dynal A. S., Oslo, Norway). The efficiency of CD4+ T cell depletion was >95% as assessed by flow cytometry. Syngeneic spleen cells from naive mice were treated with […] mitomycin C, hapten-labeled by incubation with DNBS ([…]), and used as stimulator cells. Responder LNC were resuspended in serum-free HL-1 medium (BioWhittaker, Walkersville, Md.) and cultured at 3×10^5 cells/well with 5×10^5 stimulator cells/well 24 h at 37° C. in 5% CO2. In all experiments responder CD8+ T cells cultured with unlabeled splenocytes and LNC from naive mice cultured with DNBS-labeled stimulator cells were used as negative controls. […] The resulting spots were counted on an ImmunoSpot Series 1 Analyzer (Cellular Technologies Ltd., Cleveland, Ohio) that was designed to detect spots with predetermined criteria for size, shape and colorimetric density. […]

[6] = tested on: antigen-presenting dendritic cells; assay: Flow cytometry of CD11c+/FITC+ dendritic cells in skin draining lymph nodes; format: in vivo, BALB/c mice; details: day +2
Protocol: LNC were obtained from hapten-sensitized mice on day +2 post-sensitization. To prevent non-specific antibody binding cells were incubated with rat serum (Rockland, Gilbertsville, Pa.) diluted 1:1000 in staining buffer (Dulbecco's PBS with 2% FCS/0.02% NaN3) for 20 min on ice. Then cells were washed and stained with PE-labeled anti-CD11c mAb to detect DC. Stained cells were washed five times, resuspended in staining buffer and analyzed by two-color flow cytometry using a FACScan (Becton Dickinson, San Jose, Calif.).
To detect Langerhans cells in the lymph nodes LNC were obtained 48 h after sensitization with 1% FITC and were stained with PE-labeled anti-CD11c mAb and then analyzed by two-color flow cytometry.

**Q.** Which “phosphorylation of p53” value [1] does the source give for CCN(CC)CCCC(C)Nc1c2ccc(Cl)cc2nc2ccc(OC)cc12 (stereo not shown) [QC, quinacrine] here?
**A.** did not induce the phosphorylation of p53

**Q.** What about the “basal and TNF-induced NF-κB reporter activities” value ([2]; H1299-NF-kB-Luc cells) of the same molecule?
**A.** strong dose-dependent suppression; also recorded: capable of inhibiting both basal and TNF-induced activities of NF-κB

**Q.** And the “timing of addition relative to TNF needed to inhibit NF-κB” value ([2]; H1299-NF-κBLuc cells)?
**A.** can inhibit NF-κB when added before, simultaneously with or after TNF stimulation

**Q.** What about the “nuclear accumulation and retention of NF-κB (p65) complexes” value [3] of the same molecule?
**A.** greatly prolonged the time of its presence in nuclei

**Q.** What about the “growth of tumor xenografts” value ([4]; ACHN cells subcutaneous in nude mice, QC 50 mg/kg intraperitoneal) of the same molecule?
**A.** inhibited the growth of tumor xenografts; also recorded: same antitumor effect as 5-fluorouracil

**Q.** What about the weight loss ([4]; ACHN xenograft nude mice, QC 50 mg/kg) of the same molecule?
**A.** without the significant weight loss

**Q.** What about the “increase in priming of antigen-specific effector T cells” value ([5]; quinacrine on days 0 and +1 (during sensitization)) of the same molecule?
**A.** ~3 fold

**Q.** And the “priming of antigen-specific T cells (IFN-γ producing CD8 T cells)” value ([5]; quinacrine on days −2 and −1 (just prior to sensitization))?
**A.** inhibits the priming of antigen-specific T cells; also recorded: decreased the priming of antigen-specific T cells

**Q.** And the “numbers of antigen-presenting dendritic cells in the skin draining lymph nodes” value ([6]; quinacrine on days 0 and +1 (during 1% FITC sensitization))?
**A.** increased numbers of antigen-presenting dendritic cells

**Q.** And the “numbers of antigen-presenting dendritic cells in the skin draining lymph nodes” value ([6]; quinacrine on days −2 and −1 (prior to 1% FITC sensitization))?
**A.** decreased numbers of antigen-presenting dendritic cells

Reference: patent US20100112012A1, “MODULATION OF IMMUNE RESPONSES” (CLEVELAND CLINIC FOUNDATION, priority 2005, published 2010)
